Legend:
L-type calcium channel = L-type calcium channel inhibition
N-type calcium channel = target: T1, N-type calcium channel (Rattus norvegicus, UniProt Q02294); assay: Inhibition of N-type calcium channel: calcium currents in cells of maxillary sympathetic ganglions of rats, whole cell voltage clamp; assay type: cell-based; conditions: rat maxillary sympathetic ganglion cells, depolarization from -60 mV to 0 mV, barium as charge carrier
T1 construct: from tissue; host or cells: freshly dissociated sympathetic ganglion cells of Wistar rats (2 to 4 weeks old)
T1 sequence (Q02294 whole entry): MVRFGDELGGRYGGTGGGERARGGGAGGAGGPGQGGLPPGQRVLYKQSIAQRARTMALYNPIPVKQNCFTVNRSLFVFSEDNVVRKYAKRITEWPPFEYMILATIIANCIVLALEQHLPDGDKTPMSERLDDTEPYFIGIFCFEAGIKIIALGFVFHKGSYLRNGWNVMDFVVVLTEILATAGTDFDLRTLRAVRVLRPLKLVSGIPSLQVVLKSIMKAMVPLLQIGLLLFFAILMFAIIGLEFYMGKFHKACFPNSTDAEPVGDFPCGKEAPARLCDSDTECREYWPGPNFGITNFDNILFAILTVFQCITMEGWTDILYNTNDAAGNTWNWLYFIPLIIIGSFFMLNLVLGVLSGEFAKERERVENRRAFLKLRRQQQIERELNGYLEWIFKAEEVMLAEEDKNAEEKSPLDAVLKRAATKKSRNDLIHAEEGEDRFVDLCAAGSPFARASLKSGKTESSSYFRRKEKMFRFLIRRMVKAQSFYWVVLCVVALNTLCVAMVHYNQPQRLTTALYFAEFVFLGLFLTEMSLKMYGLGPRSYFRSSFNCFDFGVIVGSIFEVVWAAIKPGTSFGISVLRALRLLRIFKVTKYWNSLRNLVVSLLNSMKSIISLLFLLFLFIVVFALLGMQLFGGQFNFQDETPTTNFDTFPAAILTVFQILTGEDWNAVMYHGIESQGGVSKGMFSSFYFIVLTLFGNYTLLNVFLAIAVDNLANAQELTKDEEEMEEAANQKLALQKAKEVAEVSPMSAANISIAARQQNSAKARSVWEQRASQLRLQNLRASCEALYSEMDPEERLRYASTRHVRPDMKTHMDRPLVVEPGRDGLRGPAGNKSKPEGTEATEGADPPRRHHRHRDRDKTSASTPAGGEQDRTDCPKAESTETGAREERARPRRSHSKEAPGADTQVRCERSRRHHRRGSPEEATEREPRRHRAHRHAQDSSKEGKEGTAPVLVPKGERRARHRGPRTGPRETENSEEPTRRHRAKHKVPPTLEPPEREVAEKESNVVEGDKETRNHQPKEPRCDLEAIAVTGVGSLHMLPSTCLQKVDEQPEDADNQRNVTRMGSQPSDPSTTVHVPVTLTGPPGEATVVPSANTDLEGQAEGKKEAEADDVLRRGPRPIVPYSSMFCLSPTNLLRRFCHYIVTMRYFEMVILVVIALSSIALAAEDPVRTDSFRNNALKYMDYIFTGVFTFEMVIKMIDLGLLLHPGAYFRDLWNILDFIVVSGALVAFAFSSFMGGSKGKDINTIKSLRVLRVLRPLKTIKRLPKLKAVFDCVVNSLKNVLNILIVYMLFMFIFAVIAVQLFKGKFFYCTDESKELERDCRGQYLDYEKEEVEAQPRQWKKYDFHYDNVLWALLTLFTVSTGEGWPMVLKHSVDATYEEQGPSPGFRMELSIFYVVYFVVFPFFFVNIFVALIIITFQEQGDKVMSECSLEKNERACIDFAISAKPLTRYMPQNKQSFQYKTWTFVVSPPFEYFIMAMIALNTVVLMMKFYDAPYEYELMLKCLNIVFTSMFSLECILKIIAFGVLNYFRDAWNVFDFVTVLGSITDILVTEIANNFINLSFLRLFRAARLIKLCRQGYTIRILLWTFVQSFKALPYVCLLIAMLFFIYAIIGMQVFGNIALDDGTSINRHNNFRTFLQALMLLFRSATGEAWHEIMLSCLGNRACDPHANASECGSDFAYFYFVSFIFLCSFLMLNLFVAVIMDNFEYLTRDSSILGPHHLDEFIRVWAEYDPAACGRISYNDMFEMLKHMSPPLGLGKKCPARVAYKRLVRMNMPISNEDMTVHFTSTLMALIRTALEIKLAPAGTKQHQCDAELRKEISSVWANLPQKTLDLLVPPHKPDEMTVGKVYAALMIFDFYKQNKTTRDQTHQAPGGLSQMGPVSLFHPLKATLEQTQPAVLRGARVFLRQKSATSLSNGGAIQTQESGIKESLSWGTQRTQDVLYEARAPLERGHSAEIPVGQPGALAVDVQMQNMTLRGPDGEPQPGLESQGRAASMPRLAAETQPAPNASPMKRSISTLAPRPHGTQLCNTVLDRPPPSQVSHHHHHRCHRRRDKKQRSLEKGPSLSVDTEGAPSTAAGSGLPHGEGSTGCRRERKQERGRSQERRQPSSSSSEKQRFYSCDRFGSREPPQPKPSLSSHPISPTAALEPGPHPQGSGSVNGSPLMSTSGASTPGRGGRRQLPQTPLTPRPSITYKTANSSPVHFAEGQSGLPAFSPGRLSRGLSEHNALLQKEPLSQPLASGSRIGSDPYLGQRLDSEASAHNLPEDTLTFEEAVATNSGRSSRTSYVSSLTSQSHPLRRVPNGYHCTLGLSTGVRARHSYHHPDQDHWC
T1 sequence (P54287 whole entry partner): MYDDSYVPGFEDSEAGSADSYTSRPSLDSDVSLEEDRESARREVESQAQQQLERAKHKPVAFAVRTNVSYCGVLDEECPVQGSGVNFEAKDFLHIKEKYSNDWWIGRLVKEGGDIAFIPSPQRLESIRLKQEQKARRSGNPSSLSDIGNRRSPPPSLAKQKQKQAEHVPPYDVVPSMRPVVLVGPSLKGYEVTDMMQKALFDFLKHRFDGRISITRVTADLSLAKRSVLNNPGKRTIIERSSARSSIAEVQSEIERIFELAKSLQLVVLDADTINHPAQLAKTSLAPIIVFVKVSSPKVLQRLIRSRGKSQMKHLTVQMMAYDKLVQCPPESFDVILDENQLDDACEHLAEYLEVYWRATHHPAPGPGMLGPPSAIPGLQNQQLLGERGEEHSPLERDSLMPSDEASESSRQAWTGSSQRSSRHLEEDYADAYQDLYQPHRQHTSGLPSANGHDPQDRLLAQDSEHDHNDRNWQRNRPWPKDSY
T1 sequence (P54290 25-944 partner limits assumed): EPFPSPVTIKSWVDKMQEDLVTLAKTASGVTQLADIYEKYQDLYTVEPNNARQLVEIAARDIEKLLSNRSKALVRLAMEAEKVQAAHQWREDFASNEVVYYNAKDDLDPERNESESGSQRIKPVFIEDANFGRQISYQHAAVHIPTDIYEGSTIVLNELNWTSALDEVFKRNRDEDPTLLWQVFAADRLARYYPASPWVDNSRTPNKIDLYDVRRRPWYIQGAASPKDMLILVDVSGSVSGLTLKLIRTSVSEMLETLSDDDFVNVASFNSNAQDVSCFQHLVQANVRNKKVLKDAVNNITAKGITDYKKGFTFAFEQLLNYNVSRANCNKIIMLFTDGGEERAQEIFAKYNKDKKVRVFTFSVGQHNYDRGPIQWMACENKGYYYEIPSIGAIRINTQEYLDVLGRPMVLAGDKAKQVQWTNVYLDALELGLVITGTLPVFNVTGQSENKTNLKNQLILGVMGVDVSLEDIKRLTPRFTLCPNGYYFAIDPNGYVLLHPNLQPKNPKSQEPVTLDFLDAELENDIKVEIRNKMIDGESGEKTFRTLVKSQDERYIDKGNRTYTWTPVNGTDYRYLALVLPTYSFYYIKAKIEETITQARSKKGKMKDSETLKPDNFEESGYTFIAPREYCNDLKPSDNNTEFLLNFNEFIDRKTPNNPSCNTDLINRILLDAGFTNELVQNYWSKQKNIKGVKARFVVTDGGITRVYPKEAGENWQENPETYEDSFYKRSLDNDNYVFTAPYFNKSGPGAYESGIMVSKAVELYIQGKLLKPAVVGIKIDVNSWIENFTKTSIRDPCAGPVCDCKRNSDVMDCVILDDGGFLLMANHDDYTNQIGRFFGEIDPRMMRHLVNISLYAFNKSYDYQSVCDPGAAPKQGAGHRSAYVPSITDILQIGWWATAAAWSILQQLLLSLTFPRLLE
T1 sequence (P54290 945-1091 partner limits assumed): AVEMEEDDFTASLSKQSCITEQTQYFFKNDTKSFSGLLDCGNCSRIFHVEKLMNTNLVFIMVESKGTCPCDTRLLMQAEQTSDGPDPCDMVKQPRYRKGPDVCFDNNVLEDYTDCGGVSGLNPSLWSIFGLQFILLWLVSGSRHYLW
Protocol: (Test Examples) Inhibition activity of N-type calcium channel:
1) Preparation of cells of maxillary sympathetic ganglions of rats:
The cervix of each of Wistar rats (2 to 4 weeks old) was opened to expose the maxillary ganglions under anesthesia with pentobarbital. A pair of the ganglions were removed and immediately washed with Ca^2+-free Tyrode solution cooled with ice. Each ganglion was cut into 3 or 4 pieces and kept in the Ca^2+-free Tyrode solution for 15 minutes. Then, these pieces were treated with papain [Washington Biochemicals (lot#35J557); 20 U/ml] and then with a mixture of type-2 collagenase [Washington Biochemicals (CLS2); 5900 U/ml] and dispase [Calbiochem (lot#1312973); 16 mg/ml] for one hour. After enzymatic treatment, the ganglion cells were mechanically isolated by pipetting. The isolated ganglion cells were used for the experiments within 6 hours.
2) Determination of calcium electric current:
The calcium electric current was determined by the whole cell voltage clamp method under the fixed membrane potential. The pipette electrode was pulled from glass tube (inner diameter: 1.5 mm; Narishige) in two stage of a vertical pipette puller (PB-7; Narishige). The ionic current was amplified with a patch amplifier (CEZ-2300; Nihon Kohden Corporation). The noises were cut at 10 kHz (E-3201B, NF Electronic Instrument) and then the ionic current was monitored on a storage oscilloscope (DS-9121, Iwatsu) and, at the same time, recorded with a DAT data recorder (RD-120TE, TEAC). Then it was passed through a 1 kHz filter and recorded in a computer (Compaq DeskPro) with PCLAMP software (Axon Instrument) of 3 kHz. All the experiments were performed at room temperature (25±2° C.). In the measurement of current through the calcium channel, 10 mM barium (composition of the solution: shown below) was used in place of calcium as the charge carrier. The transmission of barium through the calcium channel was better than that of calcium in the sympathetic ganglion cells, and the calcium-dependent channel inactivation was slight when barium was used.
The test compounds were rapidly administered by Y-tube method by Murase et al. [Brain Res. 525, 84 (1990)]. Each compound was dissolved in DMSO, preparing 10 mM mother solution. At the highest drug concentration used, the vehicle (0.1%) had no significant effect on the calcium current.
2) Composition of Normal Tyrode's solution: NaCl; 143, KCl; 4, MgCl2; 0.5; CaCl2; 1.8, glucose; 5.5, NaH2PO4; 0.33, HEPES; 5 (Mm). The pH was adjusted to 7.4 with tris-OH. Composition of Ca-free Tyrode's solution: the same as that of the Normal Tyrode's solution except that it was free of CaCl2.
External solution for the determination of calcium electric current (mM): TEACL; 144, CsCl; 4, BaCl2; […], MgCl2; 0.53, glucose: 5.5, HEPES; 5 (pH 7.4)
Solution in patch electrode: CsCl; 140, MgCl2; 5, CaCl2; 0.28, HEPES; 10 (pH 7.2), EGTA; 5 (pH 7.2).
The electric current was induced by the depolarization for 50 ms, from the holding potential of −60 mV to the test potential of 0 mV. This test potential was the peak in the current/voltage relationship, and the inhibition effect was examined at this point at which the error by the drift of the holding potential was reduced. As Tsein et al. reported, the maxillary ganglion cells were substantially free of L-type component (not more than 5%), and at least 85% thereof comprised the N-type component. […] The inhibition activity of the dihydropyridine derivatives (1 uM) thus determined was 10 to 70%.

Structure (SMILES): CC1=C(C(=O)O)C(c2cccc(C#N)c2)C(C(=O)OC/C=C/c2ccccc2)=C(C)N1 (stereo not drawn) [Example 3, mono(3-phenyl-2-propene-1-yl) 4-(3-cyanophenyl)-2,6-dimethyl-1,4-dihydropyridine-3,5-dicarboxylate]
- IC50 (L-type calcium channel): 6.3 nM
- L-type inhibition 100 nM (%) (L-type calcium channel): 98%
- inhibition at 0.1 µM (N-type calcium channel): 47.5%

Structure (SMILES): CC1=C(C(N)=O)C(c2cccc(Cl)c2)C(C(=O)OC/C=C/c2ccccc2)=C(C)N1 (stereo not drawn) [Example 8, (3-phenyl-2-propene-1-yl) 5-carbamoyl-4-(3-chlorophenyl) -2,6-dimethyl-1,4-dihydropyridine-3-carboxylate]
- IC50 (L-type calcium channel): 32 nM
- L-type inhibition 100 nM (%) (L-type calcium channel): 75%
- inhibition at 0.1 µM (N-type calcium channel): 31.4%

Structure (SMILES): CC1=C(C#N)C(c2cccc(Cl)c2)C(C(=O)OC/C=C/c2ccccc2)=C(C)N1 (stereo not drawn) [Example 9, (3-phenyl-2-propene-1-yl) 4-(3-chlorophenyl) -5-cyano-2,6-dimethyl-1,4-dihydropyridine-3-carboxylate]
- IC50 (L-type calcium channel): 82 nM
- L-type inhibition 100 nM (%) (L-type calcium channel): 56%
- inhibition at 0.1 µM (N-type calcium channel): 21.3%

Structure (SMILES): CC1=C(C(=O)O)C(c2cccc(Cl)c2)C(C(=O)OCC(=O)Nc2ccccc2)=C(C)N1 (stereo not drawn) [Example 14, mono(phenylcarbamoylmethyl) 4-(3-chlorophenyl)-2,6-dimethyl-1,4-dihydropyridine-3,5-dicarboxylate]
- IC50 (L-type calcium channel): 50 nM
- L-type inhibition 100 nM (%) (L-type calcium channel): 70%
- inhibition at 0.1 µM (N-type calcium channel): 28.6%

Structure (SMILES): COc1cccc(C2C(C(=O)O)=C(C)NC(C)=C2C(=O)OC/C=C/c2ccccc2)c1 (stereo not drawn) [Example 20, mono(3-phenyl-2-propene-1-yl) 4-(3-methoxyphenyl)-2,6-dimethyl-1,4-dihydropyridine-3,5-dicarboxylate]
- IC50 (L-type calcium channel): 250 nM
- L-type inhibition 100 nM (%) (L-type calcium channel): 38%
- inhibition at 0.1 µM (N-type calcium channel): 24.3%

Source: patent US6350766B1, “Dihydropyridine derivative” (Ajinomoto Co., Inc., priority 1997, dated 2002)
